Assay results reported in patent US20120219506A1, “Catenae: Serosal Cancer Stem Cells” (SLOAN KETTERING INSTITUTE FOR CANCER RESEARCH, priority 2009, published 2012).
Read-outs that look alike come from different tables or passages of the source.

Key:
Ovcar3-GTL catenae [1] = assay: Ovcar3-GTL catena drug sensitivity (proliferation, alamarBlue, 384-well)
Experimental: Cultures of Ovcar3-GTL catenae were mechanically or enzymatically dissociated to single cells. For mechanical dissociation, catena cultures were pipetted vigorously, an equal volume of M5-FCS media was added to decrease the viscosity, and the cells were pelleted. For enzymatic dissociation, catena cultures were incubated at 5 mg/ml collagenase IV (Invitrogen) for 10 min at 37° C. followed by centrifugation to pellet the cells. Cells were resuspended in M5-FCS to produce homogenous cultures of single cells which were seeded in 50 μL aliquots per well at the indicated cell densities and grown for the indicated times before addition of test compounds or other reagents.
The amount of fluorescence or absorbance is proportional to the number of living cells and corresponds to the cells metabolic activity. […] Absorbance of alamarBlue® is monitored at 570 nm, using 600 nm as a reference wavelength. Larger fluorescence emission intensity (or absorbance) values correlate to an increase in total metabolic activity from cells.
For these experiments, 25 Ovcar3-GTL catena or 250 Ovcar3-GTL catena cells were seeded per well as described above. […] Five days after adding the test compound, alamarBlue® was added to the cultures and culture absorbance was measured 48 hours later.

Ovcar3-GTL catenae [2] = assay: Catena morphology on basement membrane matrix (Matrigel) coated plates; assay type: cell-based, human; details: for morphology on Matrigel, hyaluronidase-pretreated cells grown with 4-MU and Y27632 / morphology on Matrigel, mechanically-dissociated cells grown with 4-MU and Y27632: 1 mM 4-MU together with 50 μM Y27632, imaged after 4 days
Experimental: Ovcar3-GTL catenae were dissociated to single cells by mechanical dissociation or by hyaluronidase treatment and cultured on basement membrane matrix (Matrigel) coated plates. A similar set of cultures were grown in the presence of 1 mM 4-methylumbelliferone (4-MU) and 50 μM Y27632, the former being an hyaluronan synthase 2 (HAS2) inhibitor and the latter being a Rho-ROCK inhibitor. The cultures were imaged after 4 days.

catena cells [3] = assay: Morphological effects on catena cells observed under the microscope; assay type: cell-based, human; details: for catena cells observed under the microscope in cultures treated with high concentrations: 100 μM (rapamycin 25 μM, lovastatin acid 50 μM), cells arrested at mitosis, re-entered cell cycle without drug
Experimental: When these cells were harvested and cultured in the absence of drugs, they re-entered the cell cycle.
These spheroids continued to grow in the presence of high concentrations of rapamycin (>50 uM) and retained their spheroid morphology.
The change in the cell-to-cell junctions might also be a resistance mechanism where cells activate signaling pathways by increasing cell-to-cell attachment or more tightly control transport of molecules between cells. […]

catena cells [4] = assay: Exosome release from catena cells (exosome isolation and FACS); assay type: cell-based, human; details: PMA 10 uM
Experimental: To prepare secreted and exosomal fractions from catenae, the catenae were grown in serum-free media with insulin as described in Example 28 for 5 days, until the culture was near confluent. All centrifugations were done at 4° C. to preserve protein integrity. The cells were removed by centrifugation at 300×g for 10 min. The supernatant fraction was further spun down at 2,000×g for 20 minutes and at 10,000×g for 30 min to remove cellular debris. This supernatant was subjected to ultracentrifugation at100,000×g for 2.5 h. The new supernatant fraction, containing the soluble proteins secreted by catenae (i.e., the catena secretome) was concentrated 200-fold by through a 10 kDa molecular weight cutoff filter. The resulting pellet from the ultracentrifugation was washed twice with PBS, with each wash followed by another round of ultracentrifugation under the same conditions, and kept at 4° C. for further analysis. Exosomes were isolated from Ovcar5 and A2780 human ovarian cancer cell lines that were grown as attached mesenchymal monolayers and from two ovarian cancer patient ascites samples using the same methodology. […]
The exosome isolation followed by FACS analysis allows rapid analysis of ovarian cancer stem cell exosomes both quantitatively and qualitatively. […]

catena cells [5] = assay: Growth of catena cells upon disruption of the glycocalyx; assay type: cell-based, human
Experimental: To investigate the how catena cells grow upon disruption of the glycocalyx, catenae were dissociated to single cells with hyaluronidase treatment and plated in tissue culture treated flasks with or without 10% hyaluronidase enzyme solution (10 mg/ml) to prevent the formation of glycocalyx. In parallel, catenae were dissociated mechanically and plated in the absence of hyaluronidase.

[6] = Viscosity of catena culture supernatant after hyaluronidase; details: a few drops 10 mg/mL hyaluronidase
Experimental: In contrast, Ovcar3-GTL epithelial cells were 98% positive for CA125 by FACS and secreted 800 units/ml of CA125 into culture media. For the ELISA, cell supernatants were collected by spinning the cultures at 300×g for 5 min to remove cells and assayed by CA125 ELISA using an automated instrument, ADVIA Centaur XP Immunoassay System (Siemens Healthcare Diagnostics Inc.).
Hyaluronan is a glycosaminoglycan found in extracellular matrix and functions to provide microenvironmental cues in a number of biological processes, including tumor development [Toole, 2004]. Supernatants prepared as above were treated with a few drops 10 mg/mL hyaluronidase (Sigma) in deionized water.

Ovcar3-GTL catenae [7] = assay: Particle exclusion experiment with red blood cells (glycocalyx visualisation); assay type: cell-based, human; details: brief incubation with hyaluronidase, RBCs overnight
Experimental: To visualize the glycocalyx surrounding a catena, a particle exclusion experiment was conducted using red blood cells (RBCs). Catenae were mechanically dissociated by pipetting or by brief incubation with hyaluronidase as before. RBCs from human peripheral blood were added and the mixture was incubated overnight in culture media. The cells were observed under the light microscope for the presence of a glycocalyx separating catena cells from the RBCs.

COc1cccc2c1C(=O)c1c(O)c3c(c(O)c1C2=O)C[C@@](O)(C(C)=O)C[C@@H]3O[C@H]1C[C@H](N)[C@H](O)[C@H](C)O1 [daunarubacin]
Increase in Resistance Day 6/Day 1 (Ovcar3-GTL catenae [1]; IC50 day 6 / IC50 day 1): 133 fold

O=c1cc(N2CCOCC2)oc2c(-c3ccccc3)cccc12 [LY294002]
Increase in Resistance Day 6/Day 1 (Ovcar3-GTL catenae [1]; IC50 day 6 / IC50 day 1): 4 fold

Cc1cc(=O)oc2cc(O)ccc12 [4-methylumbelliferone]
morphology on Matrigel, hyaluronidase-pretreated cells grown with 4-MU and Y27632 (Ovcar3-GTL catenae [2]): the cultures did not become viscous and the attached cells formed filopodial extensions | morphology on Matrigel, mechanically-dissociated cells grown with 4-MU and Y27632 (Ovcar3-GTL catenae [2]): did not become viscous; rather, the cells attached to the plates and formed filopodial extensions

CO[C@@]12[C@H](COC(N)=O)C3=C(C(=O)C(C)=C(N)C3=O)N1C[C@@H]1N[C@@H]12 [mitomycin-C]
Increase in Resistance Day 6/Day 1 (Ovcar3-GTL catenae [1]): 60 fold

C/C(=C\c1csc(C)n1)[C@@H]1C/C=C(/C(F)(F)F)C/C=C/[C@H](C)[C@H](O)[C@@H](C)C(=O)C(C)(C)[C@@H](O)CC(=O)O1 [fludelone]
catena cells observed under the microscope in cultures treated with high concentrations (catena cells [3]): live, large single cells

CO[C@H]1C[C@@H]2CC[C@@H](C)[C@@](O)(O2)C(=O)C(=O)N2CCCC[C@H]2C(=O)O[C@H]([C@H](C)C[C@@H]2CC[C@@H](O)[C@H](OC)C2)CC(=O)[C@H](C)/C=C(\C)[C@@H](O)[C@@H](OC)C(=O)[C@H](C)C[C@H](C)/C=C/C=C/C=C/1C [rapamycin]
Increase in Resistance Day 6/Day 1 (Ovcar3-GTL catenae [1]; IC50 day 6 / IC50 day 1): 2 fold

COc1cc([C@@H]2c3cc4c(cc3[C@@H](O[C@@H]3O[C@@H]5CO[C@@H](C)O[C@H]5[C@H](O)[C@H]3O)[C@H]3COC(=O)[C@H]23)OCO4)cc(OC)c1O [etoposide]
Increase in Resistance Day 6/Day 1 (Ovcar3-GTL catenae [1]; IC50 day 6 / IC50 day 1): 125 fold

CC[C@@]1(O)C(=O)OCc2c1cc1n(c2=O)Cc2cc3c(CN(C)C)c(O)ccc3nc2-1 [topotecan]
Increase in Resistance Day 6/Day 1 (Ovcar3-GTL catenae [1]; IC50 day 6 / IC50 day 1): 5,000 fold | catena cells observed under the microscope in cultures treated with high concentrations (catena cells [3]): live, large single cells

C/C1=C/C[C@@H](/C(C)=C/c2csc(C)n2)OC(=O)C[C@H](O)C(C)(C)C(=O)[C@H](C)[C@@H](O)[C@@H](C)CCC1 [dEpoB]
Increase in Resistance Day 6/Day 1 (Ovcar3-GTL catenae [1]; IC50 day 6 / IC50 day 1): 250,000 fold

C[C@@H](Oc1cc(-c2cnn(C3CCNCC3)c2)cnc1N)c1c(Cl)ccc(F)c1Cl [PF-02341066]
Increase in Resistance Day 6/Day 1 (Ovcar3-GTL catenae [1]; IC50 day 6 / IC50 day 1): 31 fold

iso-oxazole-fludelone
Increase in Resistance Day 6/Day 1 (Ovcar3-GTL catenae [1]; IC50 day 6 / IC50 day 1): 33,333 fold | catena cells observed under the microscope in cultures treated with high concentrations (catena cells [3]): live, large single cells

C/C(=C\c1csc(C)n1)[C@@H]1C[C@@H]2O[C@]2(C)CCC[C@H](C)[C@H](O)[C@@H](C)C(=O)C(C)(C)[C@@H](O)CC(=O)O1 [Epo-B, Epothilone B]
Increase in Resistance Day 6/Day 1 (Ovcar3-GTL catenae [1]; IC50 day 6 / IC50 day 1): 4,000 fold

Cc1ccc2c(c1)C(=O)C1(O)CCN(c3ccccc3)C1=N2 (stereo not shown) [blebbistatin]
exosome release (catena cells [4]): inhibited exosome release

CC[C@H](C)C(=O)O[C@H]1C[C@@H](C)C=C2C=C[C@H](C)[C@H](CC[C@@H](O)C[C@@H](O)CC(=O)O)[C@H]21 [lovastatin acid]
Increase in Resistance Day 6/Day 1 (Ovcar3-GTL catenae [1]; IC50 day 6 / IC50 day 1): 2 fold | catena cells observed under the microscope in cultures treated with high concentrations (catena cells [3]): live, large single cells

CC(=O)O[C@H]1C(=O)[C@@]2(C)[C@H]([C@H](OC(=O)c3ccccc3)[C@]3(O)C[C@H](OC(=O)[C@H](O)[C@@H](NC(=O)c4ccccc4)c4ccccc4)C(C)=C1C3(C)C)[C@]1(OC(C)=O)CO[C@@H]1C[C@@H]2O [paclitaxel]
IC50 (Ovcar3-GTL catenae [1]; Homo sapiens, read-out: IC50 Addition on Day 1): 0.012 nM | catena cells observed under the microscope in cultures treated with high concentrations (catena cells [3]): live, large single cells

Nc1ccn([C@@H]2O[C@H](CO)[C@@H](O)[C@@H]2O)c(=O)n1 [Ara-C]
Increase in Resistance Day 6/Day 1 (Ovcar3-GTL catenae [1]; IC50 day 6 / IC50 day 1): 2,000 fold | catena cells observed under the microscope in cultures treated with high concentrations (catena cells [3]): live, large single cells

C=CCNC1=C2C[C@@H](C)C[C@H](OC)[C@H](O)[C@@H](C)/C=C(\C)[C@H](OC(N)=O)[C@@H](OC)/C=C\C=C(/C)C(=O)NC(=CC1=O)C2=O [17AAG, 17-AAG/Tanespimycin]
Increase in Resistance Day 6/Day 1 (Ovcar3-GTL catenae [1]; IC50 day 6 / IC50 day 1): 33 fold

hyaluronidase
morphology on Matrigel, cells treated with only hyaluronidase (Ovcar3-GTL catenae [2]; imaged after 4 days): attached to extracellular matrix and grew as attached irregular aggregates | growth of catena cells after brief hyaluronidase treatment, plated without enzyme (catena cells [5]): no longer formed free floating chains but rather proliferated as irregular aggregates in suspension | growth of catena cells continuously treated with hyaluronidase (catena cells [5]; 10% hyaluronidase enzyme solution (10 mg/ml)): attached to tissue culture plates and formed epithelial and mesenchymal monolayers | morphological change of catenae on treatment (catena cells [3]): lose their polarity and form irregular aggregates | viscosity of the culture supernatant [6]: rapidly reduced the viscosity of the supernatant | glycocalyx in particle exclusion experiment (Ovcar3-GTL catenae [7]): completely lacked a glycocalyx

O=C(CCCCCCC(=O)Nc1ccccc1)NO [SAHA]
morphological change of catenae on treatment (catena cells [3]): formation of tight spheroids

CC(=O)c1c(C)c2cnc(Nc3ccc(N4CCNCC4)cn3)nc2n(C2CCCC2)c1=O [PD-0332991]
Increase in Resistance Day 6/Day 1 (Ovcar3-GTL catenae [1]; IC50 day 6 / IC50 day 1): 83 fold

O=c1[nH]cc(F)c(=O)[nH]1 [5-FU, 5-fluorouracil]
Increase in Resistance Day 6/Day 1 (Ovcar3-GTL catenae [1]; IC50 day 6 / IC50 day 1): 33 fold | morphological change of catenae on treatment (catena cells [3]): formation of fused chains

CCCCCCCCCCCCCC(=O)O[C@@H]1[C@@H](C)[C@@]2(O)[C@@H](C=C(CO)C[C@]3(O)C(=O)C(C)=C[C@@H]23)[C@@H]2C(C)(C)[C@]12OC(C)=O [phorbol 12-myristate 13-acetate]
exosome release (catena cells [4]): induced exosomes release

C[C@@H](N)[C@H]1CC[C@H](C(=O)Nc2ccncc2)CC1 [Y27632]
morphology on Matrigel, hyaluronidase-pretreated cells grown with 4-MU and Y27632 (Ovcar3-GTL catenae [2]): the cultures did not become viscous and the attached cells formed filopodial extensions | morphology on Matrigel, mechanically-dissociated cells grown with 4-MU and Y27632 (Ovcar3-GTL catenae [2]): did not become viscous; rather, the cells attached to the plates and formed filopodial extensions

COc1cccc2c1C(=O)c1c(O)c3c(c(O)c1C2=O)C[C@@](O)(C(=O)CO)C[C@@H]3O[C@H]1C[C@H](N)[C@H](O)[C@H](C)O1 [doxorubicin]
Increase in Resistance Day 6/Day 1 (Ovcar3-GTL catenae [1]; IC50 day 6 / IC50 day 1): 32 fold
